According to patent publication US20230085307A1, “PYRIDAZINONE COMPOUND AND HERBICIDE” (NISSAN CHEMICAL CORPORATION, priority 2019, published 2023):

What was measured:
lambsquarters [1] = test: Test Example 4: herbicidal effect by soil treatment (Table 19, symbol O); type: in vivo, lambsquarters (Chenopodium album)
Method in brief: (§1)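 Step 1: sow seeds in sterilized diluvial soil, cover ~1.5 cm. Step 2: spray diluted emulsion onto soil surface at predetermined rate. Step 3: greenhouse, 25–30° C, three weeks. Step 4: grade effect on each plant by earlier criteria.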

Chinese sprangletop = test: Test Example 3: herbicidal effect by foliage application, Wagner pot (Table 18, symbol D); type: in vivo, chinese sprangletop (Leptochloa chinensis)
Method in brief: (§2)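 Plants were sown in alluvial soil held under 0.1–0.5 cm standing water and grown 14 days in a greenhouse at 25–30 °C. An emulsifiable formulation, water-diluted to the set dose, was then sprayed onto the foliage, and effects were scored three weeks later using previously defined criteria.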

southern crabgrass = test: Test Example 4: herbicidal effect by soil treatment (Table 19, symbol F); type: in vivo, southern crabgrass (Digitaria ciliaris)
Method in brief: as §1

blackgrass [2] = test: Test Example 5: herbicidal effect by foliage application, plastic box (Table 20, symbol J); type: in vivo, blackgrass (Alopecurus myosuroides); conditions: foliage application; for J: blackgrass, herbicidal effect: three weeks after application
Method in brief: (§3)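 Foliar spray test: emulsion formulation diluted in water to a set application rate, sprayed onto 14-day-old plants raised in diluvial soil at 25° C to 30° C under glass. Both herbicidal effect and crop effect rated visually three weeks later.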

barnyard grass = test: Test Example 3: herbicidal effect by foliage application, Wagner pot (Table 18, symbol H); type: in vivo, barnyard grass (Echinochloa crus-galli)
Method in brief: as §2

persian speedwell = test: Test Example 4: herbicidal effect by soil treatment (Table 19, symbol R); type: in vivo, Persian speedwell (Veronica persica)
Method in brief: as §1

late watergrass [3] = test: Test Example 2: herbicidal activity, application during weed generation under submerged conditions (Table 17, symbol A); type: in vivo, late watergrass (Echinochloa oryzicola); conditions: application during weed generation, submerged conditions
Method in brief: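 3-wk visual-criteria score after one water-surface dose. Emulsion formulation, water-diluted to set rate; applied at 1–2 leaf stage; alluvial soil, 4 cm standing water; seeds co-sown; greenhouse 25–30° C.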

velvetleaf [4] = test: Test Example 5: herbicidal effect by foliage application, plastic box (Table 20, symbol M); type: in vivo, velvetleaf (Abutilon theophrasti); conditions: foliage application; for M: velvetleaf, herbicidal effect: three weeks after application
Method in brief: as §3

blackgrass [5] = test: Test Example 4: herbicidal effect by soil treatment (Table 19, symbol J); type: in vivo, blackgrass (Alopecurus myosuroides)
Method in brief: as §1

Italian ryegrass [6] = test: Test Example 5: herbicidal effect by foliage application, plastic box (Table 20, symbol K); type: in vivo, Italian ryegrass (Lolium multiflorum); conditions: foliage application; for K: Italian ryegrass, herbicidal effect: three weeks after application
Method in brief: as §3

lambsquarters [7] = test: Test Example 5: herbicidal effect by foliage application, plastic box (Table 20, symbol O); type: in vivo, lambsquarters (Chenopodium album); conditions: foliage application; for O: lambsquarters, herbicidal effect: three weeks after application
Method in brief: as §3

late watergrass [8] = test: Test Example 1: herbicidal activity, application before weed generation under submerged conditions (Table 16, symbol A); type: in vivo, late watergrass (Echinochloa oryzicola)
Method in brief: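 Alluvial soil was flooded to 4 cm depth, weed seeds were sown mixed and 2.5-leaf rice seedlings were transplanted. On sowing day, the compound's emulsion, diluted in water to a set dose, was applied to the water surface. Plants grew at 25–30 °C and were scored 0–5 after three weeks.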

redroot pigweed = test: Test Example 5: herbicidal effect by foliage application, plastic box (Table 20, symbol N); type: in vivo, redroot pigweed (Amaranthus retroflexus); conditions: foliage application; for N: redroot pigweed, herbicidal effect: three weeks after application
Method in brief: as §3

velvetleaf [9] = test: Test Example 4: herbicidal effect by soil treatment (Table 19, symbol M); type: in vivo, velvetleaf (Abutilon theophrasti)
Method in brief: as §1

Italian ryegrass [10] = test: Test Example 4: herbicidal effect by soil treatment (Table 19, symbol K); type: in vivo, Italian ryegrass (Lolium multiflorum)
Method in brief: as §1

windgrass = test: Test Example 4: herbicidal effect by soil treatment (Table 19, symbol L); type: in vivo, windgrass (Apera spica-venti)
Method in brief: as §1

[11] = 320 g/ha, evaluated three weeks after application

## Cc1nn(C)c(=O)c(-c2c(-c3ccc(OCC4CC4)cc3)sc3ccccc23)c1O [1-142]
Lambsquarters [1]; AAH 320 g/ha
  O: lambsquarters, herbicidal effect rating: 5 (Herbicidal rate of 90% or more (almost completely withered))
Chinese sprangletop; 320 g/ha
  herbicidal effect on D (Chinese sprangletop), rating 0-5: 1 (Herbicidal rate of 5% or more and less than 20%)
Southern crabgrass; AAH 320 g/ha
  F: southern crabgrass, herbicidal effect rating: 0 (Herbicidal rate of 5% or less (almost no effect))
Blackgrass [2]; AAH 320 g/ha
  J: blackgrass, herbicidal effect: 0 (Herbicidal rate of 5% or less (almost no effect))
Barnyard grass; 320 g/ha
  herbicidal effect on H (barnyard grass), rating 0-5: 3 (Herbicidal rate of 40% or more and less than 70%)
Persian speedwell; AAH 320 g/ha
  R: persian speedwell, herbicidal effect rating: 5 (Herbicidal rate of 90% or more (almost completely withered))
Late watergrass [3]; AAH 320 g/ha
  herbicidal effect rating, A: late watergrass: 0 (Herbicidal rate of 5% or less (almost no effect))
Velvetleaf [4]; AAH 320 g/ha
  M: velvetleaf, herbicidal effect: 1 (Herbicidal rate of 5% or more and less than 20%)
Blackgrass [5]; AAH 320 g/ha
  J: blackgrass, herbicidal effect rating: 0 (Herbicidal rate of 5% or less (almost no effect))
Italian ryegrass [6]; AAH 320 g/ha
  K: Italian ryegrass, herbicidal effect: 0 (Herbicidal rate of 5% or less (almost no effect))
Lambsquarters [7]; AAH 320 g/ha
  O: lambsquarters, herbicidal effect: 3 (Herbicidal rate of 40% or more and less than 70%)
Late watergrass [8]; 320 g/ha applied herbicide
  Herbicidal effect on A: late watergrass (grade 0-5): 3 (Herbicidal rate of 40% or more and less than 70%)
Redroot pigweed; AAH 320 g/ha
  N: redroot pigweed, herbicidal effect: 2 (Herbicidal rate of 20% or more and less than 40%)
Velvetleaf [9]; AAH 320 g/ha
  M: velvetleaf, herbicidal effect rating: 3 (Herbicidal rate of 40% or more and less than 70%)
Italian ryegrass [10]; AAH 320 g/ha
  K: Italian ryegrass, herbicidal effect rating: 0 (Herbicidal rate of 5% or less (almost no effect))
windgrass; AAH 320 g/ha
  L: windgrass, herbicidal effect rating: 0 (Herbicidal rate of 5% or less (almost no effect))

## COCCOc1ccc(-c2sc3ccccc3c2-c2c(O)c(C)nn(C)c2=O)cc1 [1-148]
Lambsquarters [1]; AAH 368 g/ha
  O: lambsquarters, herbicidal effect rating: 5 (Herbicidal rate of 90% or more (almost completely withered))
Chinese sprangletop; 368 g/ha
  herbicidal effect on D (Chinese sprangletop), rating 0-5: 4 (Herbicidal rate of 70% or more and less than 90%)
Southern crabgrass; AAH 368 g/ha
  F: southern crabgrass, herbicidal effect rating: 4 (Herbicidal rate of 70% or more and less than 90%)
Blackgrass [2]; AAH 368 g/ha
  J: blackgrass, herbicidal effect: 4 (Herbicidal rate of 70% or more and less than 90%)
Barnyard grass; 368 g/ha
  herbicidal effect on H (barnyard grass), rating 0-5: 5 (Herbicidal rate of 90% or more (almost completely withered))
Persian speedwell; AAH 368 g/ha
  R: persian speedwell, herbicidal effect rating: 5 (Herbicidal rate of 90% or more (almost completely withered))
Late watergrass [3]; AAH 368 g/ha
  herbicidal effect rating, A: late watergrass: 3 (Herbicidal rate of 40% or more and less than 70%)
Velvetleaf [4]; AAH 368 g/ha
  M: velvetleaf, herbicidal effect: 5 (Herbicidal rate of 90% or more (almost completely withered))
Blackgrass [5]; AAH 368 g/ha
  J: blackgrass, herbicidal effect rating: 1 (Herbicidal rate of 5% or more and less than 20%)
Italian ryegrass [6]; AAH 368 g/ha
  K: Italian ryegrass, herbicidal effect: 5 (Herbicidal rate of 90% or more (almost completely withered))
Lambsquarters [7]; AAH 368 g/ha
  O: lambsquarters, herbicidal effect: 5 (Herbicidal rate of 90% or more (almost completely withered))
Late watergrass [8]; 368 g/ha applied herbicide
  Herbicidal effect on A: late watergrass (grade 0-5): 3 (Herbicidal rate of 40% or more and less than 70%)
Redroot pigweed; AAH 368 g/ha
  N: redroot pigweed, herbicidal effect: 5 (Herbicidal rate of 90% or more (almost completely withered))
Velvetleaf [9]; AAH 368 g/ha
  M: velvetleaf, herbicidal effect rating: 4 (Herbicidal rate of 70% or more and less than 90%)
Italian ryegrass [10]; AAH 368 g/ha
  K: Italian ryegrass, herbicidal effect rating: 5 (Herbicidal rate of 90% or more (almost completely withered))
windgrass; AAH 368 g/ha
  L: windgrass, herbicidal effect rating: 0 (Herbicidal rate of 5% or less (almost no effect))

## Cc1nn(C)c(=O)c(-c2c(-c3ccc(OCC(F)(F)F)cc3)sc3ccc(F)cc23)c1O [2-049]
Lambsquarters [1]; 320 g/ha
  herbicidal effect rating, O: lambsquarters: 5 (Herbicidal rate of 90% or more (almost completely withered))
Chinese sprangletop; 320 g/ha
  herbicidal effect on D (Chinese sprangletop), rating 0-5: 5 (Herbicidal rate of 90% or more (almost completely withered))
Southern crabgrass; 320 g/ha
  herbicidal effect rating, F: southern crabgrass: 4 (Herbicidal rate of 70% or more and less than 90%)
Blackgrass [2]; [11]
  herbicidal effect on J: blackgrass: 5 (Herbicidal rate of 90% or more (almost completely withered))
Barnyard grass; 320 g/ha
  herbicidal effect on H (barnyard grass), rating 0-5: 5 (Herbicidal rate of 90% or more (almost completely withered))
Persian speedwell; 320 g/ha
  herbicidal effect rating, R: persian speedwell: 4 (Herbicidal rate of 70% or more and less than 90%)
Late watergrass [3]; AAH 320 g/ha
  herbicidal effect rating, A: late watergrass: 0 (Herbicidal rate of 5% or less (almost no effect))
Velvetleaf [4]; [11]
  herbicidal effect on M: velvetleaf: 5 (Herbicidal rate of 90% or more (almost completely withered))
Blackgrass [5]; 320 g/ha
  herbicidal effect rating, J: blackgrass: 4 (Herbicidal rate of 70% or more and less than 90%)
Italian ryegrass [6]; [11]
  herbicidal effect on K: Italian ryegrass: 5 (Herbicidal rate of 90% or more (almost completely withered))
Lambsquarters [7]; [11]
  herbicidal effect on O: lambsquarters: 5 (Herbicidal rate of 90% or more (almost completely withered))
Late watergrass [8]; 320 g/ha applied herbicide
  Herbicidal effect on A: late watergrass (grade 0-5): 2 (Herbicidal rate of 20% or more and less than 40%)
Redroot pigweed; [11]
  herbicidal effect on N: redroot pigweed: 5 (Herbicidal rate of 90% or more (almost completely withered))
Velvetleaf [9]; 320 g/ha
  herbicidal effect rating, M: velvetleaf: 5 (Herbicidal rate of 90% or more (almost completely withered))
Italian ryegrass [10]; 320 g/ha
  herbicidal effect rating, K: Italian ryegrass: 4 (Herbicidal rate of 70% or more and less than 90%)
windgrass; 320 g/ha
  herbicidal effect rating, L: windgrass: 5 (Herbicidal rate of 90% or more (almost completely withered))
